Data as given in US20230085307A1, “PYRIDAZINONE COMPOUND AND HERBICIDE” (NISSAN CHEMICAL CORPORATION, priority 2019, published 2023).

Legend:
[1] = test system: persian speedwell; assay: Test Example 5: herbicidal effect by foliage application, plastic box (Table 20, symbol R); type: in vivo, Persian speedwell (Veronica persica); settings: amount of applied herbicide 320 g/ha; foliage application after 14-day growth; evaluated three weeks after application
Outline: (§1)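 Plants sown in sterilized diluvial soil and grown 14 days in a greenhouse at 25° C to 30° C, then sprayed on the foliage with the compound's emulsion diluted in water to a predetermined herbicide amount. Injury to weeds and crops scored three weeks after application on a visual rating scale.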

[2] = test system: barnyard grass; assay: Test Example 4: herbicidal effect by soil treatment (Table 19, symbol H); type: in vivo, barnyard grass (Echinochloa crus-galli); settings: amount of applied herbicide 320 g/ha
Outline: (§2)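 Seeds were sown in sterilized diluvial soil and covered with about 1.5 cm of soil. An emulsion formulation diluted with water to a predetermined herbicide amount was sprayed evenly onto the soil surface. Plants grew in a greenhouse at 25° C. to 30° C., and the effect was scored three weeks after application using criteria from an earlier test.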

[3] = test system: barnyard grass; assay: Test Example 5: herbicidal effect by foliage application, plastic box (Table 20, symbol H); type: in vivo, barnyard grass (Echinochloa crus-galli); settings: amount of applied herbicide 320 g/ha; foliage application after 14-day growth; evaluated three weeks after application
Outline: as §1

[4] = test system: blackgrass; assay: Test Example 5: herbicidal effect by foliage application, plastic box (Table 20, symbol J); type: in vivo, blackgrass (Alopecurus myosuroides); settings: amount of applied herbicide 320 g/ha; foliage application after 14-day growth; evaluated three weeks after application
Outline: as §1

[5] = test system: southern crabgrass; assay: Test Example 5: herbicidal effect by foliage application, plastic box (Table 20, symbol F); type: in vivo, southern crabgrass (Digitaria ciliaris); settings: amount of applied herbicide 320 g/ha; foliage application after 14-day growth; evaluated three weeks after application
Outline: as §1

[6] = test system: wild oat; assay: Test Example 4: herbicidal effect by soil treatment (Table 19, symbol I); type: in vivo, wild oat (Avena fatua); settings: amount of applied herbicide 320 g/ha
Outline: as §2

[7] = test system: southern crabgrass; assay: Test Example 4: herbicidal effect by soil treatment (Table 19, symbol F); type: in vivo, southern crabgrass (Digitaria ciliaris); settings: amount of applied herbicide 320 g/ha
Outline: as §2

[8] = test system: lambsquarters; assay: Test Example 4: herbicidal effect by soil treatment (Table 19, symbol O); type: in vivo, lambsquarters (Chenopodium album); settings: amount of applied herbicide 320 g/ha
Outline: as §2

[9] = test system: redroot pigweed; assay: Test Example 5: herbicidal effect by foliage application, plastic box (Table 20, symbol N); type: in vivo, redroot pigweed (Amaranthus retroflexus); settings: amount of applied herbicide 320 g/ha; foliage application after 14-day growth; evaluated three weeks after application
Outline: as §1

[10] = test system: green foxtail; assay: Test Example 4: herbicidal effect by soil treatment (Table 19, symbol G); type: in vivo, green foxtail (Setaria viridis); settings: amount of applied herbicide 320 g/ha
Outline: as §2

[11] = test system: chickweed; assay: Test Example 5: herbicidal effect by foliage application, plastic box (Table 20, symbol P); type: in vivo, common chickweed (Stellaria media); settings: amount of applied herbicide 320 g/ha; foliage application after 14-day growth; evaluated three weeks after application
Outline: as §1

[12] = test system: Chinese sprangletop; assay: Test Example 3: herbicidal effect by foliage application, Wagner pot (Table 18, symbol D); type: in vivo, chinese sprangletop (Leptochloa chinensis); settings: 320 g/ha
Outline: (§3)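 Plants were sown in alluvial soil held under 0.1–0.5 cm standing water and grown 14 days in a greenhouse at 25–30 °C. An emulsifiable formulation, water-diluted to the set dose, was then sprayed onto the foliage, and effects were scored three weeks later using previously defined criteria.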

[13] = test system: Italian ryegrass; assay: Test Example 5: herbicidal effect by foliage application, plastic box (Table 20, symbol K); type: in vivo, Italian ryegrass (Lolium multiflorum); settings: amount of applied herbicide 320 g/ha; foliage application after 14-day growth; evaluated three weeks after application
Outline: as §1

[14] = test system: rice flat sedge; assay: Test Example 3: herbicidal effect by foliage application, Wagner pot (Table 18, symbol E); type: in vivo, rice flat sedge (Cyperus iria); settings: 320 g/ha
Outline: as §3

[15] = test system: velvetleaf; assay: Test Example 5: herbicidal effect by foliage application, plastic box (Table 20, symbol M); type: in vivo, velvetleaf (Abutilon theophrasti); settings: amount of applied herbicide 320 g/ha; foliage application after 14-day growth; evaluated three weeks after application
Outline: as §1

[16] = test system: Japanese bulrush; assay: Test Example 1: herbicidal activity, application before weed generation under submerged conditions (Table 16, symbol B); type: in vivo, Japanese bulrush (Schoenoplectus juncoides); settings: amount of applied herbicide 320 g/ha
Outline: (§4)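 Alluvial soil was flooded to 4 cm depth, weed seeds were sown mixed and 2.5-leaf rice seedlings were transplanted. On sowing day, the compound's emulsion, diluted in water to a set dose, was applied to the water surface. Plants grew at 25–30 °C and were scored 0–5 after three weeks.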

[17] = test system: wild oat; assay: Test Example 5: herbicidal effect by foliage application, plastic box (Table 20, symbol I); type: in vivo, wild oat (Avena fatua); settings: amount of applied herbicide 320 g/ha; foliage application after 14-day growth; evaluated three weeks after application
Outline: as §1

[18] = test system: windgrass; assay: Test Example 5: herbicidal effect by foliage application, plastic box (Table 20, symbol L); type: in vivo, windgrass (Apera spica-venti); settings: amount of applied herbicide 320 g/ha; foliage application after 14-day growth; evaluated three weeks after application
Outline: as §1

[19] = test system: late watergrass; assay: Test Example 1: herbicidal activity, application before weed generation under submerged conditions (Table 16, symbol A); type: in vivo, late watergrass (Echinochloa oryzicola); settings: amount of applied herbicide 320 g/ha
Outline: as §4

[20] = test system: barnyard grass; assay: Test Example 3: herbicidal effect by foliage application, Wagner pot (Table 18, symbol H); type: in vivo, barnyard grass (Echinochloa crus-galli); settings: 320 g/ha
Outline: as §3

[21] = test system: green foxtail; assay: Test Example 5: herbicidal effect by foliage application, plastic box (Table 20, symbol G); type: in vivo, green foxtail (Setaria viridis); settings: amount of applied herbicide 320 g/ha; foliage application after 14-day growth; evaluated three weeks after application
Outline: as §1

[22] = test system: chickweed; assay: Test Example 4: herbicidal effect by soil treatment (Table 19, symbol P); type: in vivo, common chickweed (Stellaria media); settings: amount of applied herbicide 320 g/ha
Outline: as §2

[23] = test system: persian speedwell; assay: Test Example 4: herbicidal effect by soil treatment (Table 19, symbol R); type: in vivo, Persian speedwell (Veronica persica); settings: amount of applied herbicide 320 g/ha
Outline: as §2

[24] = test system: Italian ryegrass; assay: Test Example 4: herbicidal effect by soil treatment (Table 19, symbol K); type: in vivo, Italian ryegrass (Lolium multiflorum); settings: amount of applied herbicide 320 g/ha
Outline: as §2

[25] = test system: lambsquarters; assay: Test Example 5: herbicidal effect by foliage application, plastic box (Table 20, symbol O); type: in vivo, lambsquarters (Chenopodium album); settings: amount of applied herbicide 320 g/ha; foliage application after 14-day growth; evaluated three weeks after application
Outline: as §1

[26] = test system: oval-leafed pondweed; assay: Test Example 1: herbicidal activity, application before weed generation under submerged conditions (Table 16, symbol C); type: in vivo, oval-leafed pondweed (Monochoria vaginalis); settings: amount of applied herbicide 320 g/ha
Outline: as §4

[27] = test system: redroot pigweed; assay: Test Example 4: herbicidal effect by soil treatment (Table 19, symbol N); type: in vivo, redroot pigweed (Amaranthus retroflexus); settings: amount of applied herbicide 320 g/ha
Outline: as §2

[28] = test system: velvetleaf; assay: Test Example 4: herbicidal effect by soil treatment (Table 19, symbol M); type: in vivo, velvetleaf (Abutilon theophrasti); settings: amount of applied herbicide 320 g/ha
Outline: as §2

[29] = test system: windgrass; assay: Test Example 4: herbicidal effect by soil treatment (Table 19, symbol L); type: in vivo, windgrass (Apera spica-venti); settings: amount of applied herbicide 320 g/ha
Outline: as §2

[30] = test system: blackgrass; assay: Test Example 4: herbicidal effect by soil treatment (Table 19, symbol J); type: in vivo, blackgrass (Alopecurus myosuroides); settings: amount of applied herbicide 320 g/ha
Outline: as §2

Row | Structure (SMILES) | Herbicidal effect by foliage application, R: persian speedwell [1] | Herbicidal effect by foliage application, H: barnyard grass [3] | Herbicidal effect by foliage application, J: blackgrass [4] | Herbicidal effect by foliage application, F: southern crabgrass [5] | Herbicidal effect by foliage application, N: redroot pigweed [9] | Herbicidal effect by foliage application, P: chickweed [11] | herbicidal effect on Chinese sprangletop (D) [12] | Herbicidal effect by foliage application, K: Italian ryegrass [13] | herbicidal effect on rice flat sedge (E) [14] | Herbicidal effect by foliage application, M: velvetleaf [15] | Herbicidal effect, B: Japanese bulrush [16] | Herbicidal effect by foliage application, I: wild oat [17] | Herbicidal effect by foliage application, L: windgrass [18] | Herbicidal effect, A: late watergrass [19] | herbicidal effect on barnyard grass (H) [20] | Herbicidal effect by foliage application, G: green foxtail [21] | Herbicidal effect by foliage application, O: lambsquarters [25] | Herbicidal effect, C: oval-leafed pondweed [26] | other results
1 | CCOc1cccc(-c2sc3c(C)cccc3c2-c2c(O)c(C)nn(C)c2=O)c1 [4-114] | 5 (Herbicidal rate of 90% or more (almost completely withered)) | 0 (Herbicidal rate of 5% or less (almost no effect)) | 1 (Herbicidal rate of 5% or more and less than 20%) | 4 (Herbicidal rate of 70% or more and less than 90%) | 4 (Herbicidal rate of 70% or more and less than 90%) | 5 (Herbicidal rate of 90% or more (almost completely withered)) | 3 (Herbicidal rate of 40% or more and less than 70%) | 5 (Herbicidal rate of 90% or more (almost completely withered)) | 4 (Herbicidal rate of 70% or more and less than 90%) | 1 (Herbicidal rate of 5% or more and less than 20%) | 0 (Herbicidal rate of 5% or less (almost no effect)) | 0 (Herbicidal rate of 5% or less (almost no effect)) | 1 (Herbicidal rate of 5% or more and less than 20%) | 3 (Herbicidal rate of 40% or more and less than 70%) | 4 (Herbicidal rate of 70% or more and less than 90%) | 4 (Herbicidal rate of 70% or more and less than 90%) | 3 (Herbicidal rate of 40% or more and less than 70%) | 0 (Herbicidal rate of 5% or less (almost no effect)) | Herbicidal effect by soil treatment, H: barnyard grass [2]: 1 (Herbicidal rate of 5% or more and less than 20%); Herbicidal effect by soil treatment, I: wild oat [6]: 0 (Herbicidal rate of 5% or less (almost no effect)); Herbicidal effect by soil treatment, F: southern crabgrass [7]: 4 (Herbicidal rate of 70% or more and less than 90%); Herbicidal effect by soil treatment, O: lambsquarters [8]: 4 (Herbicidal rate of 70% or more and less than 90%); Herbicidal effect by soil treatment, G: green foxtail [10]: 4 (Herbicidal rate of 70% or more and less than 90%); Herbicidal effect by soil treatment, P: chickweed [22]: 3 (Herbicidal rate of 40% or more and less than 70%); Herbicidal effect by soil treatment, R: persian speedwell [23]: 4 (Herbicidal rate of 70% or more and less than 90%); Herbicidal effect by soil treatment, K: Italian ryegrass [24]: 4 (Herbicidal rate of 70% or more and less than 90%); Herbicidal effect by soil treatment, N: redroot pigweed [27]: 3 (Herbicidal rate of 40% or more and less than 70%); Herbicidal effect by soil treatment, M: velvetleaf [28]: 0 (Herbicidal rate of 5% or less (almost no effect)); Herbicidal effect by soil treatment, L: windgrass [29]: 0 (Herbicidal rate of 5% or less (almost no effect)); Herbicidal effect by soil treatment, J: blackgrass [30]: 0 (Herbicidal rate of 5% or less (almost no effect))
2 | COCc1ccc(-c2sc3cc(F)c(F)cc3c2-c2c(O)c(C)nn(C)c2=O)cc1 [5-009] | 5 (Herbicidal rate of 90% or more (almost completely withered)) | 3 (Herbicidal rate of 40% or more and less than 70%) | 0 (Herbicidal rate of 5% or less (almost no effect)) | 2 (Herbicidal rate of 20% or more and less than 40%) | 5 (Herbicidal rate of 90% or more (almost completely withered)) | 5 (Herbicidal rate of 90% or more (almost completely withered)) | 3 (Herbicidal rate of 40% or more and less than 70%) | 3 (Herbicidal rate of 40% or more and less than 70%) | 3 (Herbicidal rate of 40% or more and less than 70%) | 4 (Herbicidal rate of 70% or more and less than 90%) | 0 (Herbicidal rate of 5% or less (almost no effect)) | 0 (Herbicidal rate of 5% or less (almost no effect)) | 0 (Herbicidal rate of 5% or less (almost no effect)) | 2 (Herbicidal rate of 20% or more and less than 40%) | 4 (Herbicidal rate of 70% or more and less than 90%) | 3 (Herbicidal rate of 40% or more and less than 70%) | 3 (Herbicidal rate of 40% or more and less than 70%) | 0 (Herbicidal rate of 5% or less (almost no effect)) | H: barnyard grass, herbicidal effect grade [2]: 0 (Herbicidal rate of 5% or less (almost no effect)); I: wild oat, herbicidal effect grade [6]: 0 (Herbicidal rate of 5% or less (almost no effect)); F: southern crabgrass, herbicidal effect grade [7]: 0 (Herbicidal rate of 5% or less (almost no effect)); O: lambsquarters, herbicidal effect grade [8]: 4 (Herbicidal rate of 70% or more and less than 90%); G: green foxtail, herbicidal effect grade [10]: 2 (Herbicidal rate of 20% or more and less than 40%); P: chickweed, herbicidal effect grade [22]: 5 (Herbicidal rate of 90% or more (almost completely withered)); R: persian speedwell, herbicidal effect grade [23]: 5 (Herbicidal rate of 90% or more (almost completely withered)); K: Italian ryegrass, herbicidal effect grade [24]: 0 (Herbicidal rate of 5% or less (almost no effect)); N: redroot pigweed, herbicidal effect grade [27]: 4 (Herbicidal rate of 70% or more and less than 90%); M: velvetleaf, herbicidal effect grade [28]: 2 (Herbicidal rate of 20% or more and less than 40%); L: windgrass, herbicidal effect grade [29]: 0 (Herbicidal rate of 5% or less (almost no effect)); J: blackgrass, herbicidal effect grade [30]: 0 (Herbicidal rate of 5% or less (almost no effect))
